Laboratory results as given in the COVID Moonshot data (paper PMC7615835).
“And” between values parts separate entries of the source, which are not always exact repeats. Equal entries are not always repeated.

target: SARS-CoV-2 Main Protease (SARS-CoV-2) (UniProt P0DTD1)

| Compound | IC50 |
| --- | --- |
| O=C(Nc1cncc2ccccc12)N(CCC1CCCCC1)c1cccc(Cl)c1 | 0.261 µM |
| O=C(CCl)Nc1cccc(N2CCCC2=O)c1 | 72 µM and 68.7 µM |
| O=C(NCCc1cccc(F)c1)C(c1cccnc1)N(C(=O)c1cocn1)c1ccc(N2CCCC2=O)cc1 (stereo unspecified) | 76.6 µM |
| O=C(Cc1cc(Cl)cc(Nc2n[nH]cc2Br)c1)Nc1cncc2ccccc12 | 5.04 µM |
| CCN(Cc1ccc(F)cc1)c1cc(Cl)cc(CC(=O)Nc2cncc3ccccc23)c1 | > 99.5 µM |
| Nc1nn(C(=O)Cc2cccc(Cl)c2)c2ccc(F)cc12 | > 99.5 µM |
| N[C@@H](Cc1ccc(O)cc1)C(=O)Nc1cc(Cl)cc(CC(=O)Nc2cncc3ccccc23)c1 (stereo in doubt) | 2.51 µM |
| O=C(Cc1cc(Cl)cc(Nc2ccnc(Br)c2)c1)Nc1cncc2ccccc12 | 2.74 µM |
| CS(=O)(=O)N1Cc2cc(F)c(Cl)cc2C(C(=O)Nc2cncc3ccccc23)C1 (stereo unspecified) | 0.258 µM |
| O=S(=O)(Nc1cc2c(cc1OCc1ccccc1)OCO2)c1ccccc1 | > 99.5 µM |
| O=C(Cc1cccc(Cl)c1)Nc1n[nH]c2ccc(F)cc12 | > 99.5 µM |
| CC(C)(C)c1ccc(N(C(=O)c2ccns2)C(C(=O)NCCc2cccc(F)c2)c2cccnc2)cc1 (stereo unspecified) | 51.1 µM |
| CCC1(C(=O)Nc2cncc3ccc(S(C)(=O)=O)cc23)CNC(=O)c2ccc(Cl)cc21 (stereo unspecified) | 1.45 µM |
| O=C(Cc1cc(Cl)cc(Nc2ccc3cc(Br)ccc3c2)c1)Nc1cncc2ccccc12 | 2.1 µM |
| O=C(Nc1cncc2ccccc12)C1(CNc2c[nH]c(=O)[nH]c2=O)CCOc2cc(Cl)ccc21 (stereo unspecified) | 5.36 µM |
| CNc1ccc(N(C(=O)Cn2nnc3ccccc32)c2cccc(Cl)c2)cc1 | 5.34 µM |
| CC(c1ccccc1)N(C(=O)c1cnc[nH]1)C(C(=O)NCCc1cccc(F)c1)c1cccnc1 (stereo unspecified) | > 99 µM |
| O=C(NCCc1cccc(F)c1)C(c1cccnc1)N(C(=O)c1cocn1)c1cnc(C2CCC2)nc1 (stereo unspecified) | 69.1 µM |
| N#CC1(CS(=O)(=O)N2Cc3ccc(Cl)cc3[C@@H](C(=O)Nc3cncc4ccccc34)C2)CCS(=O)(=O)CC1 (stereo in doubt) | 15.3 µM |
| O=C(Cc1cc(Cl)cc(Cl)c1)Nc1cncc2ccccc12 | 1.37 µM |
| COC1CCC2OCCN(C(=O)c3ccc4nc[nH]c4c3)C2C1 (stereo unspecified) | > 99.5 µM |
| N#Cc1ccc2c(NC(=O)Cc3cccc(Cl)c3)cncc2c1 | 9 µM |
| COc1ncc(Br)cc1Nc1cc(Cl)cc(CC(=O)Nc2cncc3ccccc23)c1 | 0.681 µM |
| O=C(NNc1nc2ccccc2[nH]1)c1cc(O)nc2ccccc12 | 25.8 µM |
| CC(C)(O)c1ccc(N(C(=O)c2cocn2)C(C(=O)NCCc2cccc(F)c2)c2cccnc2)cc1 (stereo unspecified) | 26.5 µM |
| O=C(Cc1cc(Cl)cc(Nc2ccc(Br)c3ccccc23)c1)Nc1cncc2ccccc12 | 1.98 µM |

| Compound | IC50 |
| --- | --- |
| CCCNC(=O)CN1CC(C(=O)Nc2cncc3ccccc23)c2cc(Cl)ccc2C1=O (stereo unspecified) | 0.0864 µM and 0.174 µM |
| Cc1ccncc1NC(=O)C1(c2cccc(Cl)c2)CC1 | > 99.5 µM |
| O=C(Cc1cc(Cl)cc(NCc2ccc(-c3ccccc3)cc2)c1)Nc1cncc2ccccc12 | 1.53 µM |
| CN1CCN(c2ccccc2Nc2cc(Cl)cc(CC(=O)Nc3cncc4ccccc34)c2)CC1 | 2.09 µM |
| O=C(NCCc1cccc(F)c1)C(c1cccnc1)N(Cc1ccccc1)C(=O)c1ccco1 (stereo unspecified) | > 99.5 µM |
| O=C(Cc1cccc(Cl)c1)Nc1cncc2c1CCCC2 | > 99.5 µM |
| COCc1ccccc1CNS(=O)(=O)c1c(C)sc(C)c1C | > 99.5 µM |
| CC1CC(CCN(C(=O)c2ccco2)C(C(=O)NCCc2cccc(F)c2)c2cccnc2)CC(C)(C)C1 (stereo unspecified) | > 99.5 µM |
| C=CC(=O)N(c1ccc(C(F)(F)F)cc1)C(C(=O)NCCc1cccc(F)c1)c1cncc(C)c1 (stereo unspecified) | 24.3 µM |
| Cc1cc(C(=O)N2CCC(C3CCNC3)CC2)cc(C)c1OC(F)F (stereo unspecified) | > 99.5 µM |
| C=CC(=O)N(c1ccc(C(F)(F)F)cc1)C(C(=O)NCCc1cccc(F)c1)c1cccnc1 (stereo unspecified) | 20.1 µM |
| CC(=O)NC(C)c1cc(Cl)cc(-c2ccc(S(N)(=O)=O)cc2)c1 (stereo unspecified) | > 99.5 µM |
| O=C(Nc1cncc2ccccc12)C1CCOc2c(OCc3ccccn3)cc(Cl)cc21 (stereo unspecified) | 6.43 µM |
| Cn1ccn2c(CNC(=O)c3ccc4ncsc4c3)nnc2c1=O | > 99.5 µM |
| CC(=O)NCCc1c[nH]c2c(CN3CCN(C(=O)CCl)CC3)cccc12 | 17.4 µM |
| O=C(Cc1cc(Cl)cc(NC[C@@H](c2cccnc2)N2CCOCC2)c1)Nc1cncc2ccccc12 (stereo in doubt) | 2.58 µM |
| CC12CC3CC(C)(C1)CC(Nc1cc(Cl)cc(CC(=O)Nc4cncc5ccccc45)c1)(C3)C2 | 1.58 µM |
| O=C(Nc1cnccc1Cl)c1cc(Cl)ccc1O | 24.2 µM |
| Cn1cc(C(C(=O)NCCc2cccc(F)c2)N(C(=O)c2cocn2)c2ccc(C(C)(C)C)cc2)ccc1=O (stereo unspecified) | > 99.5 µM |
| COc1ccccc1CN(C(=O)c1cocn1)C(C(=O)NCCc1cccc(F)c1)c1cccnc1 (stereo unspecified) | > 99.5 µM |
| O=C(NCCc1cccc(F)c1)C(c1cccnc1)N(Cc1c(O)ccc2c1CCCC2)C(=O)c1ccco1 (stereo unspecified) | 12.1 µM |
| N#CC1(CS(=O)(=O)N2Cc3ccc(Cl)cc3C(C(=O)Nc3cncc4cccc(Cl)c34)C2)CC1 (stereo unspecified) | 0.259 µM |
| Cc1ccncc1NC(=O)Cc1cc(Cl)cc(OC2COC2)c1 | 16 µM |
| Cc1cccc2ncc(NC(=O)Cc3cccc(Cl)c3)n12 | 5.54 µM |
| COCC1(C(=O)Nc2cncc3ccccc23)CCOc2cc(Cl)c(Cl)cc21 (stereo unspecified) | 4.04 µM |
